Data from patent publication US20210206810A1, “Detection of Optimal Recombinants Using Fluorescent Protein Fusions” (priority 2019, published 2021).

Key:
Micrococcus luteus = assay: Determination of minimum inhibitory concentration (MIC); assay type: cell-based; details: visual inspection after 24 hours at 37° C. in MHB; tested 0.25 to 32 μg/mL
[1] = system: methicillin resistant Staphylococcus aureus (MRSA); details: microbial species including MRSA; cited from earlier work

Substance: epidermicin-N101
- minimum inhibitory concentration (growth of Micrococcus luteus) (Micrococcus luteus): 2 µg/mL
- cytotoxicity to microbial species [1]: highly cytotoxic
